Test [1] deals with T1, LecA (Pseudomonas aeruginosa, UniProt Q05097).
T1 construct: made in house
In words: Direct binding assay based on fluorescence polarization, titration with LecA.
Procedure: The binding affinities of imaging probes 2–4 for LecA were determined using a direct binding assay based on fluorescence polarization (FP).[47]
(A, C) Monovalent LecA imaging probes 2–4 based on phenyl β-D-galactoside (1) were titrated with LecA. […] (E) Xyloside-fluorescein conjugate (8) and azido fluorescein (9) served as negative controls in titrations with LecA and LecB, respectively. Averages and standard deviations were determined from at least three independent titrations of technical triplicates each.
Direct binding affinity determination of LecA and LecB imaging probes was performed with direct titration of protein and imaging probes in TBS/Ca2+ buffer. Protein dilution series was prepared in 96 well plates and 10 µL of each dilution in triplicates were mixed with 10 µL of fluorescent compound (20 nM) in 384-well microtiter plates (Greiner Bio-One, Germany, cat no 781900). The plates were centrifuged (1 min, 500 g), sealed and incubated for 2 h in dark wet chamber under gentle shaking. Fluorescence was measured on a PheraStar FS plate reader (BMG Labtech GmbH, Germany) with excitation filters at 485 nm and emission filters at 535 nm. The data were analysed with MARS Data Analysis Software (BMG Labtech GmbH, Germany) to calculate Kd values.

For test [2], the system named is P. aeruginosa PAO1 biofilms. In words: In vitro biofilm staining under flow conditions, compound supplementation to the medium. Format: cell-based, Pseudomonas aeruginosa. To be noted: for Biofilm staining after accumulation: 500 nM in medium, 4 h, fluorescence microscope; for Biofilm staining by CLSM after accumulation: 500 nM, 4 h accumulation, without washing. The method, then: P. aeruginosa biofilms were grown under flow conditions and observed by fluorescence microscopy in analogy to Ghanbari et al.[66] To this end, P. aeruginosa PAO1 expressing the red fluorescent protein mCherry[56] was diluted to an OD600 nm of 0.1 and injected into the microfluidics device. After a 30-min settling period, biofilms were grown under a constant laminar flow rate of 3 mL/h per channel. Following 48 h of incubation at 30 °C, dense and mature P. aeruginosa PAO1 biofilms were observed, which were then further used for analysis of the imaging probes.
To circumvent these technical drawbacks, the addition of compounds to the medium reservoir and retention at the biofilm was pursued. Imaging compounds were added to the medium reservoirs at a concentration of 500 nM, which were continuously pumped (3 mL/h) through the flow cell for 4 h. Compound accumulation at mature P. aeruginosa biofilms was immediately analyzed using fluorescence microscopy. Afterwards, the medium was exchanged, and the biofilms were washed for 30 min (3 mL/h, no compound) to monitor the retention (Figure 5). Furthermore, an analysis using CLSM was also performed after 4 h of accumulation without washing (Figures 5 and S22).
Figure 5 Staining of P. aeruginosa PAO1 biofilms grown under flow conditions with compound supplementation to the medium. Biofilm staining with (A) fluorescein divalent probe 17, (B) fluorescein control 24, (C) BODIPY divalent probe 19, and (D) BDP FL azide control 18 was monitored after 4 h of accumulation under constant flow (3 mL/h) of LB media containing 500 nM of respective compound. Retention of imaging compounds is shown after a subsequent wash period for 30 min with medium (3 mL/h, no compound). Images were recorded by using a fluorescence microscope. CLSM was performed for (E) BODIPY divalent probe 19 and the control (F) BDP FL azide 18 after 4 h of accumulation. Green signal originates from fluorescently labeled probes 17 and 19 and controls 24 and 18. P. aeruginosa constitutively expressing mCherry from pMP7605^56 is shown in red. Z-Stack size, 2 μm. Scale bar = 50 μm.
In vitro biofilm staining under flow conditions
The flow cell experiment was set up in analogy to Ghanbari et al. and in this study, optimized and established for biofilm staining.25 In principle, the experiment is based on an inlet connected to a medium source, a peristaltic pump providing constant medium flow, a flow chamber enabling analysis of bacterial growth and an outlet (waste container/bottle).
The medium used in the flow system was LB diluted by factor 5 containing 60 µg/mL
Gm. Silicone tubings 1.6 mm (ibidi, Germany) were used transporting medium from inlet to the peristaltic pump (Watson-Marlow Fluid Technology Solutions). Stopper hoses (CarlRoth) placed in peristaltic pump were coupled to silicone tubes via connectors (ibidi, Germany).
Stopper hoses are connected to bubble traps (obtained by Claus Sternberg, DTU Copenhagen) via 0.8 mm silicone tubing (ibidi, Germany). Bubble traps were used to remove air from the medium flow and to avoid biofilm disruption. Downstream from the bubble traps, the flow cell (μ-Slide VI 0.4 ibiTreat, ibidi, Germany) was placed into the system and connected to 1.6 mm silicone tubes (ibidi, Germany). The outlet is leading the medium from flow chamber to a waste […]
In order to inoculate the flow cell with P. aeruginosa PAO1 mCherry (pMP7605)23 the silicone tubes upstream and downstream of the flow chamber were pinched off by using commercial plastic clamps. The medium flow was stopped and the flow cell was inoculated by injecting 300 µL of the bacterial suspension (OD600nm of 0.1) into the silicone tubing upstream of the flow chamber. For this, a cannula (0.30 x 12 mm, Sterican) was used. The injection point was sealed with silicone glue. After bacterial settling time of 30 min, the flow was started again and clamps were removed. Growth temperature was regulated by using a heat system (ibidi, […]
Germany). […]

Test [3] deals with P. aeruginosa PAO (DSM 1707) lung infection. In words: Optical in vivo imaging and ex situ organ analysis in acute P. aeruginosa airway infection model. On the set-up: species or system mice. The procedure:
Encouraged by the high affinity of the imaging probes and their ability to stain P. aeruginosa biofilms in vitro, we further investigated the compounds in vivo using an acute P. aeruginosa airway infection model in mice. Intratracheal administration of P. aeruginosa PAO (DSM 1707) results in a local infection that is mainly restricted to the lungs. With the infection dose of 2 × 10^6 cfu/50 μL chosen here, the number of bacteria peaks at 6 h after infection before the host immune system clears the bacteria.[70]
Then, imaging probes, divalent LecA-targeting probe 21, LecB-targeting probe 22 and the control sulfo-Cy7 (free acid), were administered intravenously to the tail vein 2 h post infection. […] This accumulation in the lungs was then confirmed by a subsequent ex vivo analysis of the organs.
Figure 6 Optical in vivo imaging in mice and ex situ analysis of organs with P. aeruginosa PAO acute lung infection. In vivo imaging of mice with P. aeruginosa intratracheal infection (right) or uninfected control mice (left) after intravenous administration of imaging probes 2 h post infection: (A) 50 nmol/20 g divalent LecA probe 21 or (B) 100 nmol/20 g LecB probe 22. Then, explanted lungs were analyzed for fluorescence intensity, shown as a false color scale in (C) divalent LecA probe 21 (left: uninfected, right: infected) and (D) LecB probe 22 (left: uninfected; middle: uninfected control without dye; right: infected). (E) Quantification of the average radiant efficiency of the divalent LecA ligand 21 and the control sulfo-Cy7 free acid in the lungs of uninfected and infected mice. Duplicate data points and the mean are depicted. (F) Average radiant efficiency was quantified for the LecB imaging probe 22 in lungs of infected and uninfected mice. In addition, (G) further mouse organs were explanted after i.v. injection of 21 (50 nmol/20 g) or control sulfo-Cy7 free acid (50 nmol/20 g) and imaged. Organs of uninfected (left), infected (right) mice, and uninfected mice without any dye (upper middle on the sulfo-Cy7 free acid rows) were compared. Fluorescence intensities are shown as false color pictures. […]
Lung infection model and in vivo imaging of P. aeruginosa
C57BL/6J and albino (Tyrc2J) C57BL/6 mice were bred and housed at the Central Animal Facility, Hannover Medical School, Germany. Animal experiments were performed with permission number: 33.9-42502-04-16/2072 from the Lower Saxony State Office for Consumer Protection and Food Safety (LAVES), Germany. Mice were anesthetized with 3% isoflurane (CP Pharma) and infected intratracheally with 2x10^6 cfu/50 µL of P. aeruginosa PAO (DSM1707, Braunschweig, Germany) as described previously.26
50 – 100 nmol sulfo-Cyanine7-compound (divalent LecA probe 21; LecB probe 22; control sulfoCy7 free acid, CAS no.: 2104632-30-4, Lumiprobe; control sulfoCy7 azide, 20, Lumiprobe) per 20 g mouse was injected intravenously 2 h after infection. Optical imaging was performed 4 – 7 h after compound administration. Mice were anesthetized with 3% isoflurane […]
an in vivo imaging system (IVIS SpectrumCT, PerkinElmer). Subsequently mice were euthanized and organs were imaged (675/760 nm) ex situ individually. To enhance Cyanine7 specific fluorescent signal spectral unmixing was performed on in vivo images using LivingImage 4.7 (PerkinElmer). […]

T1 sequence (Q05097 whole entry): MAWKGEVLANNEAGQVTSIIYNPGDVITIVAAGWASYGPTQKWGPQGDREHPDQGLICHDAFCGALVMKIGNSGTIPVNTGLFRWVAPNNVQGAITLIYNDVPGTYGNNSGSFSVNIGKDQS

One may read the Kd as a measure of binding affinity in units of concentration. Lower therefore signals higher affinity. Compound `O=C1OC2(c3ccc(O)cc3Oc3cc(O)ccc32)c2ccc(NC(=S)NCCOCCOCCOCCn3cc(COc4ccc(S[C@@H]5O[C@H](CO)[C@H](O)[C@H](O)[C@H]5O)cc4)nn3)cc21` [compound 4] gave a Kd in test [1] of 8.5 ± 0.8 µM.
Regarding `CC1=CC(C)=[N+]2C1=Cc1ccc(CCC(=O)NCCCN=[N+]=[N-])n1[B-]2(F)F` [compound 18, BDP FL azide, reference compound], in test [2] (3 mL/h), the “Biofilm staining after accumulation” value is on record as “did not show any enrichment”. In addition, the “Biofilm staining by CLSM after accumulation” value in test [2] was “no signal was observed”.
On to `CC1=CC(C)=[N+]2C1=Cc1ccc(CCC(=O)NCCCn3cc(CCN(Cc4ccc(NC(=O)CCc5ccc(O[C@@H]6O[C@H](CO)[C@H](O)[C@H](O)[C@H]6O)cc5)cc4)Cc4ccc(NC(=O)CCc5ccc(O[C@@H]6O[C@H](CO)[C@H](O)[C@H](O)[C@H]6O)cc5)cc4)nn3)n1[B-]2(F)F` [compound 19], for which the “Biofilm staining after accumulation” value in test [2] (3 mL/h) is reported as “strong staining was observed”. Besides, the “Biofilm staining by CLSM after accumulation” value in test [2] is “clear and strong staining predominantly at the periphery of large biofilm aggregates”. Further, the “Retention at biofilm after wash” value in test [2] (after 4 h accumulation at 500 nM, 30 min wash, 3 mL/h, no compound) was “the strong signal was still observed”.
Turning to `C[C@@H]1O[C@H](CNS(=O)(=O)c2ccc(-c3cn(CCCNC(=O)CCCCC[N+]4=C(/C=C/C5=CC(=C/C=C6/N(C)c7ccc(S(=O)(=O)O)cc7C6(C)C)/CCC5)C(C)(C)c5cc(S(=O)(=O)[O-])ccc54)nn3)s2)[C@@H](O)[C@H](O)[C@@H]1O` [compound 22], in test [3] (ex vivo analysis of organs, infected vs uninfected mice), the “Average fluorescence radiant efficiency of explanted lungs” value is “elevated compared with uninfected mice”. In test [3] (i.v. 2 h post infection, infected vs uninfected mice, 21 50 nmol/20 g, 22 100 nmol/20 g), the “Cyanine7 signal in lung area, optical in vivo imaging” value is reported as “elevated Cyanine7 signals in the area of the lung of infected mice compared to uninfected mice”. The “Fluorescence ex vivo in lungs of uninfected animals compared to control sulfo-Cyanine7 (free acid)” value in test [3] (uninfected mice, ex vivo quantification) is “a certain accumulation in the lungs of uninfected animals”.
